In general, EC50 refers to the concentration at which the effect is half-maximal.

The record followed here is patent US20260103471A1, “CYCLIC UREA THIAZOLYL COMPOUNDS FOR TREATMENT OF HSV” (Assembly Biosciences, Inc., priority 2022, published 2026).

Structures are written as SMILES.

The first assay has as its system HSV-1. Description: HSV-1 Antiviral Assay (Vero cells, cell viability). It counts as cell-based. The conditions noted are these: Human alphaherpesvirus 1, 96 h; Vero cells, 80 TCID50 HSV-1, 4 days, cell viability; read-out: HSV-1 EC50. As for the experimental part:
Vero cells were cultured in Dulbecco's Modified Eagle Medium (DMVEM) supplemented with […] and 100 units/mL penicillin and streptomycin. The cells were passaged 2-3 times per week to maintain sub-confluent densities.
Vero cells were seeded into 96-well plates at a density of 2.5×10^3 cells per well and allowed to attach overnight. Following attachment, the media was replaced with 50 μL of infection medium (DMVEM supplemented with 2% fetal bovine serum and 100 units/mL penicillin and streptomycin). A Tecan D300e digital dispenser was then used to add compounds to the culture using an 8-point 3-fold serial dilution format. The DMSO concentration was normalized to 0.5% for all treatments. Following compound addition, 50 μL of infection medium containing 80 TCID50 HSV-1 was added to the cells and incubated at 37° C. for 4 days. After the incubation, the plates were equilibrated to room temperature, the media was removed, and […] a 1:1 dilution of Cell titer glow and phosphate buffered saline was added to the cells. Following a 5-minute incubation, cell viability was quantified by measuring luminance using a Tecan Infinite M1000 Pro plate reader.
Turning to `Cc1nc(N2CCCN(c3ccc(-n4ncc5ccccc54)cc3)C2=O)sc1S(N)(=O)=O` [Compound 93], the EC50 is less than 100 nM.

In the case of `Cc1nc(N2CCCN(c3ccc(-c4cccc5cn(C)nc45)cc3)C2=O)sc1S(N)(=O)=O` [Compound 53], the EC50 lay in the range of 100 to 1000 nM.

As to `Cc1nc(N2CCN(c3ccc(-c4cc(F)ccc4F)cc3)C2=O)sc1S(N)(=O)=O` [Compound 104], the EC50 fell in the range of 1000 to 5000 nM.

As to `CC(=O)NS(=O)(=O)c1sc(N2CCCN(c3ccc(-c4cc(F)ccc4F)cc3)C2=O)nc1C` [Compound 137], the EC50 was in the range of 1000 to 5000 nM.

Take `Cc1nc(N2CCCN(c3ccc(-c4n[nH]c5ccccc45)cc3)C2=O)sc1S(N)(=O)=O` [Compound 91]: the EC50 fell in the range of 100 to 1000 nM.

In the case of `CNS(=O)(=O)c1sc(N2CCCN(c3ccc(-c4cccc(NC(=O)OC(C)(C)C)n4)cc3)C2=O)nc1C` [Compound 125], the EC50 lay in the range of 100 to 1000 nM.

As to `Cc1nc(N2CC3(CC3)CN(c3ccc(-c4ccccc4F)cc3)C2=O)sc1[S@@](C)(=N)=O` (single isomer, unassigned) [Compound 160], the half-maximal effective concentration (EC50) fell in the range of 100 to 1000 nM.

Regarding `CCS(=N)(=O)c1sc(N2CCCN(c3ccc(-c4cc(F)ccc4F)cc3)C2=O)nc1C` (stereo not drawn) [Compound 148], the EC50 was less than 100 nM.

`Cc1nc(N2CC3(CC3)CN(c3ccc(-c4ccccc4F)cc3)C2=O)sc1S(N)(=O)=O` [Compound 111]: the EC50 was less than 100 nM.

As to `Cc1nc(N2CCCN(c3ccc(-c4nc5ccccc5o4)cc3)C2=O)sc1S(N)(=O)=O` [Compound 87], the EC50 lay in the range of 1000 to 5000 nM.

On to `CC[S@](=N)(=O)c1sc(N2CCCN(c3ccc(-c4cc(F)ccc4F)cc3)C2=O)nc1C` (single isomer, unassigned) [Compound 150], for which the concentration for a half-maximal effect (EC50) is less than 100 nM.

On to `Cc1nc(N2CCCN(c3ccc(-c4cccc5ncn(C)c45)cc3)C2=O)sc1S(N)(=O)=O` [Compound 62], for which the EC50 was 1000 to 5000 nM.

`Cc1nc(N2CCCN(c3ccc(-c4cccc5c4ncn5C)cc3)C2=O)sc1S(N)(=O)=O` [Compound 61]: the EC50 is 100 to 1000 nM.

In the case of `Cc1nc(N2CC3(CC3)CN(c3ccc(-c4ccccc4F)cc3)C2=O)sc1[S@](C)(=N)=O` (single isomer, unassigned) [Compound 159], the EC50 fell in the range of 100 to 1000 nM.

`CS(=O)(=O)c1cnc(N2CCCN(c3ccc(-c4cc(F)ccc4F)cc3)C2=O)s1` [Compound 167]: the EC50 was 100 to 1000 nM.

In the case of `Cc1nc(N2CCCN(c3ccc(-c4cccc(N)n4)cc3)C2=O)sc1S(N)(=O)=O` [Compound 33], the EC50 is 100 to 1000 nM.

On to `Cc1nc(N2CCCN(c3ccc(-c4cc(F)ccc4F)cc3)C2=O)sc1S(=O)(=O)Nc1ccccc1` [Compound 134], for which the EC50 was in the range of 100 to 1000 nM.

As for `Cc1nc(N2CCCN(c3ccc(-c4cc(F)ccc4F)cc3)C2=O)sc1S(=O)(=O)N1CCOCC1` [Compound 136], the EC50 fell in the range of 100 to 1000 nM.

For `Cc1nc(N2CC(C)(C)CN(c3ccc(-c4cc(F)ccc4F)cc3)C2=O)sc1S(N)(=O)=O` [Compound 106], the EC50 is less than 100 nM.

Consider `Cc1nc(N2CCCN(c3ccc(-c4cccc5cnn(C)c45)cc3)C2=O)sc1S(N)(=O)=O` [Compound 63], for which the EC50 is less than 100 nM.

As for `Cc1nc(N2CCCN(c3ccc(-c4ccccc4F)cc3)C2=O)sc1[S+](C)[O-]` (stereo not drawn) [Compound 168], the concentration giving a half-maximal response (EC50) was in the range of 100 to 1000 nM.

Regarding `Cc1nc(N2CCCN(c3ccc(-c4ccccn4)c(F)c3)C2=O)sc1S(=O)(=O)NC1CC1` [Compound 129], the EC50 was 100 to 1000 nM.

Turning to `Cc1nc(N2CCCN(c3ccc(-c4cccc(C(F)(F)F)c4)cc3)C2=O)sc1S(N)(=O)=O` [Compound 15], the EC50 was in the range of 100 to 1000 nM.

Turning to `Cc1nc(N2CCCN(c3ccc(-c4cc(F)ccc4F)cc3)C2=O)sc1S(=O)(=O)N1CCNCC1` [Compound 135], the EC50 is 100 to 1000 nM.

Turning to `Cc1nc(N2CCCN(C(C)c3cccc(-c4ccccc4F)c3)C2=O)sc1S(N)(=O)=O` (stereo not drawn) [Compound 177], the EC50 is 1000 to 5000 nM.

As to `Cc1nc(N2CCCN(c3ccc(-c4cccc5cccnc45)cc3)C2=O)sc1S(N)(=O)=O` [Compound 82], the EC50 was 100 to 1000 nM.

`Cc1cnc(-c2ccc(N3CCCN(c4nc(C)c(S(N)(=O)=O)s4)C3=O)cc2)s1` [Compound 44]: the EC50 lay in the range of 1000 to 5000 nM.

For the molecule `NS(=O)(=O)c1sc(N2CCCN(c3ccc(-c4ccccc4F)cc3)C2=O)nc1C(F)(F)F` [Compound 170], the EC50 was less than 100 nM.

`C#Cc1cc(F)c(-c2ccc(N3CCCN(c4nc(C)c(S(N)(=O)=O)s4)C3=O)cc2)cc1F` [Compound 29]: the EC50 lay within 1000 to 5000 nM.

As for `Cc1nc(N2CCCN(c3ccc(-c4cccc5ccncc45)cc3)C2=O)sc1S(N)(=O)=O` [Compound 83], the EC50 is less than 100 nM.

Regarding `Cc1nc(N2CCCN(c3ccc(-c4cccc5scnc45)cc3)C2=O)sc1S(N)(=O)=O` [Compound 71, 2-(3-(4-(Benzo[d]thiazol-4-yl)phenyl)-2-oxotetrahydropyrimidin-1(2H)-yl)-4-methylthiazole-5-sulfonamide], the EC50 was less than 100 nM.

Regarding `Cc1nc(N2CCCN(c3ccc(-c4nc(C(F)(F)F)cs4)cc3)C2=O)sc1S(N)(=O)=O` [Compound 46], the EC50 is 100 to 1000 nM.

As for `Cc1nc(N2CCCN(Cc3cccc(-c4ccccc4)c3)C2=O)sc1S(=O)(=O)NC1CC1` [Compound 183], the 50% effective concentration (EC50) lay in the range of 100 to 1000 nM.

For the molecule `Cc1nc(N2CCCN(c3ccc(-c4cnccn4)cc3)C2=O)sc1S(N)(=O)=O` [Compound 39], the EC50 was 100 to 1000 nM.

`Cc1nc(N2CCCN(c3ccc(-c4cccc(NC(=O)OC(C)(C)C)n4)cc3)C2=O)sc1S(N)(=O)=O` [Compound 34]: the half-maximal effective concentration (EC50) was 100 to 1000 nM.

As for `Cc1nc(N2CCCN(c3ccc(-c4cc(F)ccc4F)cc3)C2=O)sc1S(C)(=N)=O` (stereo not drawn) [Compound 139, 1-(2′,5′-Difluoro-[1,1′-biphenyl]-4-yl)-3-(4-methyl-5-(S-methylsulfonimidoyl)thiazol-2-yl) tetrahydropyrimidin-2(1H)-one], the half-maximal effective concentration (EC50) was 100 to 1000 nM.

The same assay, now with this note: Human alphaherpesvirus 1, Vero, 96 h, read-out: HSV-1 EC50.
With `Cc1nc(N2CCCN(c3ccc(-c4cc(F)ccc4F)cc3)C2=O)sc1S(=O)(=O)F` [Compound 165], the EC50 lay in the range of 1000 to 5000 nM.

The next assay deals with HSV-2 G strain. As to the kind of experiment: HSV-2 Antiviral Assay (Vero cells, cell viability). Type of assay: cell-based. The conditions noted are these: Human alphaherpesvirus 2, Vero, 120 h, Vero cells, 160 TCID50 HSV-2 G strain, 5 days, cell viability. Put shortly: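 Vero cells (1.0×10^4/well, attached overnight) given 8-point 3-fold compound dilutions (0.5% DMSO) then infected with 160 TCID50 HSV-2 G strain in 2% FBS medium for 5 days at 37 °C. Protection read as cell viability by WST-8 absorbance at 460 and 620 nm after 3 h.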
The molecule `Cc1nc(N2CCCN(c3ccc(-c4snc5c(F)ccc(F)c45)cc3)C2=O)sc1S(N)(=O)=O` [Compound 307] came in with an EC50 of 100 to 1000 nM.

In turn, `Cc1nc(N2CCCN(c3ccc(-c4cc(F)cc5cc(C#N)sc45)cc3)C2=O)sc1S(N)(=O)=O` [Compound 276] yielded an EC50 of less than 100 nM.

`Cc1nc(N2CCCN(c3ccc(-c4cc(Cl)ccn4)cc3)C2=O)sc1S(N)(=O)=O` [Compound 185] displayed an EC50 of less than 100 nM.

Molecule `COc1ccc(F)cc1-c1ccc(N2CC3(COC3)CN(c3nc(C)c(S(C)(=O)=O)s3)C2=O)cc1` [Compound 435] displayed an EC50 of less than 100 nM.

Molecule `COc1cc(-c2ccc(N3CCCN(c4nc(C)c(S(N)(=O)=O)s4)C3=O)cc2)c2nsnc2c1` [Compound 303] registered a 50% effective concentration (EC50) of less than 100 nM.

As to `Cc1nc(N2C[C@@H](O)CN(c3ccc(-c4cc(F)ccc4F)cc3)C2=O)sc1S(N)(=O)=O` (single isomer, unassigned) [Compound 355], the EC50 is less than 100 nM.

The molecule `Cc1nc(N2CCCN(c3ccc(-c4nccc(Cl)c4F)cc3)C2=O)sc1S(N)(=O)=O` [Compound 37] gave an EC50 of 100 to 1000 nM.

The molecule `Cc1nc(N2CC(CO)CN(c3ccc(-c4cc(F)ccc4F)cc3)C2=O)sc1S(N)(=O)=O` (stereo not drawn) [Compound 356] displayed an EC50 of less than 100 nM.

Turning to `Cc1nc(N2CCCN(c3ccc(-c4cc(F)cc(/C=C/C#N)c4)cc3)C2=O)sc1S(N)(=O)=O` [Compound 192], the EC50 is less than 100 nM.

For the molecule `Cc1nc(N2C[C@@H](C)CN(c3ccc(-c4ccccc4)cc3)C2=O)sc1S(N)(=O)=O` (single isomer, unassigned) [Compound 328], the EC50 is less than 100 nM.

Turning to `COc1c(F)cc(C#N)cc1-c1ccc(N2CCCN(c3nc(C)c(S(N)(=O)=O)s3)C2=O)cc1` [Compound 226], the half-maximal effective concentration (EC50) fell in the range of 100 to 1000 nM.

`Cc1nc(N2CCCN(c3ccc(-c4cccn5cncc45)cc3)C2=O)sc1S(N)(=O)=O` [Compound 65] displayed an EC50 of 100 to 1000 nM.

In turn, `Cc1nc(N2CCCN(c3ccc(-c4cc(F)cc(F)c4O)cc3)C2=O)sc1S(N)(=O)=O` [Compound 215] returned an EC50 of less than 100 nM.

The molecule `Cc1nc(N2CCCN(c3ccc(-c4cc(C(F)(F)F)cc5c4c(F)cn5C)cc3)C2=O)sc1S(N)(=O)=O` [Compound 297] had an EC50 of 100 to 1000 nM.

Consider `CN=[S@](C)(=O)c1sc(N2CCCN(c3ccc(-c4ccccc4F)cc3)C2=O)nc1C` (single isomer, unassigned) [Compound 146], for which the EC50 lay in the range of 100 to 1000 nM.

Molecule `Cc1nc(N2CCCN(c3ccc(-c4cc(F)cc5nsnc45)cc3)C2=O)sc1S(=O)(=O)NCCCO` [Compound 418] showed an EC50 of less than 100 nM.

As for `Cc1nc(N2CCCN(c3ccc(-c4cccc5cnsc45)cc3)C2=O)sc1S(N)(=O)=O` [Compound 258], the EC50 was less than 100 nM.

Turning to `Cc1nc(N2CCCN(c3ccc(-c4cc(F)cc5c(C)c(C(C)(C)F)sc45)cc3)C2=O)sc1S(N)(=O)=O` [Compound 283], the EC50 was in the range of 100 to 1000 nM.

On to `Cc1nc(N2CCCN(c3ccc(-c4cc(F)cc5c(C)c(C(C)(C)O)sc45)cc3)C2=O)sc1S(N)(=O)=O` [Compound 282], for which the EC50 lay within 100 to 1000 nM.

Molecule `Cc1nc(N2CCCN(c3ccc(-c4cc(C#N)cc5c4ccn5C)cc3)C2=O)sc1S(N)(=O)=O` [Compound 302] came in with an EC50 of 100 to 1000 nM.
